Source: ChEMBL document CHEMBL4000221 (Bioorg Med Chem Lett, 2017)

Tests used:
[1] = biological target: T1, Sodium-dependent serotonin transporter (Homo sapiens, UniProt P31645); assay: Inhibition of [3H]5-HT uptake by SERT primary site (S1) (unknown origin) expressed in African green monkey COS1 cells after 10 mins by TopCount scintillation counting method; assay type: cell-based
Homo sapiens [2] = species on record: Homo sapiens; assay: Selectivity ratio of EC50 for inhibition of [3H]-S-citalopram dissociation from SERT allosteric modulator site (S2) (unknown origin) expressed in African green monkey COS1 cell membranes to IC50 for [3H]5-HT uptake by SERT primary site (S1) (unknown origin) expressed in African green monkey COS1 cells; assay type: cell-based
[3] = biological target: T1, Sodium-dependent serotonin transporter
Homo sapiens [4] = species on record: Homo sapiens; assay: Selectivity ratio of EC50 for inhibition of [3H]-S-citalopram dissociation from human SERT allosteric modulator site (S2) expressed in African green monkey COS7 cell membranes to IC50 for displacement of [3H]-S-citalopram from human SERT primary site (S1) expressed in African green monkey COS7 cell membranes
[5] = biological target: T1, Sodium-dependent serotonin transporter; remark: listed apart in the source
[6] = biological target: T1, Sodium-dependent serotonin transporter; remark: listed apart in the source

T1 sequence (P31645 whole entry): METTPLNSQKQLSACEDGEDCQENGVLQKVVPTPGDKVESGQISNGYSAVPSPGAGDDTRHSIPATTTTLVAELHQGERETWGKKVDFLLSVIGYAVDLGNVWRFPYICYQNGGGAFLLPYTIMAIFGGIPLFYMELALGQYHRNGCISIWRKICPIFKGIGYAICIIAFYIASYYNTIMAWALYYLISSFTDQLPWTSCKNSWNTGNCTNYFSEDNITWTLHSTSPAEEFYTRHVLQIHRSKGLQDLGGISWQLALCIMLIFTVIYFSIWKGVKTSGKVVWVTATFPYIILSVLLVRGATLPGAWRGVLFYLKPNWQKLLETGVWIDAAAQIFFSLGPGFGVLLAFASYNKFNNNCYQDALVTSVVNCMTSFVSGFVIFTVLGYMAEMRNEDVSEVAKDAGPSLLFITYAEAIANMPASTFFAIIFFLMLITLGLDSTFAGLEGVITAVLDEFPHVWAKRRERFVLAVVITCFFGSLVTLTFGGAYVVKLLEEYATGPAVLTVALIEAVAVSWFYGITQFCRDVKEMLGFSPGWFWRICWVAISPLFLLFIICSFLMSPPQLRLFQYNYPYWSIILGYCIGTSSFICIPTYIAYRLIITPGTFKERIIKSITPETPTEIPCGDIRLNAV

Row | Structure (SMILES) | IC50 [1] | EC50 [3] | Selectivity ratio (Homo sapiens [4]) | IC50 [5] | EC50 [6] | Selectivity ratio (Homo sapiens [2])
1 | CN(C)CCCC1(c2ccc3ccccc3c2)OCc2cc(C#N)ccc21 (single isomer, unassigned; enantiomer 2) [listing 1 of 2 here] | – | – | – | – | – | 370
2 | CN(C)CCCC1(c2cccc3ccccc23)OCc2cc(C#N)ccc21 (single isomer, unassigned; enantiomer 2) [listing 1 of 2 here] | – | – | – | – | – | 68
3 | CN(C)CCCC1(c2cccc3ccccc23)OCc2cc(C#N)ccc21 (stereo in doubt; 2) [listing 1 of 2 here] | – | – | – | – | – | 76
4 | CN(C)CCCC1(c2ccc(F)cc2)OCc2c1ccc1ccccc21 (stereo not drawn) | 0.004 µM | 31 µM | – | – | – | 7800
5 | CN(C)CCCC1(c2ccc3ccccc3c2)OCc2cc(C#N)ccc21 (stereo in doubt; 1) [listing 1 of 2 here] | – | – | – | – | – | 2000
6 | CCN(C)CCC[C@]1(c2ccc(F)cc2)OCc2cc(C#N)ccc21 | – | – | 8.7 | 2.3 µM | 19.9 µM | –
7 | CN(C)CCCC1(c2cc(Cl)cc(Cl)c2)OCc2ccccc21 (stereo in doubt; 4) [listing 1 of 2 here] | – | – | – | – | – | 44
8 | CCN(C)CCC[C@@]1(c2ccc(F)cc2)OCc2cc(C#N)ccc21 | – | – | 28 | 0.28 µM | 7.7 µM | –
9 | CN(C)CCCC1(c2ccc3ccccc3c2)OCc2cc(C#N)ccc21 (single isomer, unassigned) [listing 1 of 2 here] | – | – | – | – | – | 4100
10 | CCCN(C)CCC[C@@]1(c2ccc(F)cc2)OCc2cc(C#N)ccc21 | – | – | 31 | 0.19 µM | 5.9 µM | –
11 | CCCCCN(C)CCC[C@@]1(c2ccc(F)cc2)OCc2cc(C#N)ccc21 | – | – | 21 | 0.075 µM | 1.6 µM | –
12 | CCCCN(C)CCC[C@@]1(c2ccc(F)cc2)OCc2cc(C#N)ccc21 | – | – | 18 | 0.16 µM | 2.9 µM | –
13 | CN(C)CCCC(=O)c1ccc2c(c1)COC2(CCCN(C)C)c1ccc(F)cc1 (stereo not drawn) | 0.0016 µM | 714 µM | – | – | – | 450000
14 | CCCN(C)CCC[C@]1(c2ccc(F)cc2)OCc2cc(C#N)ccc21 | – | – | 8.5 | 2.4 µM | 20.3 µM | –
15 | CN(C)CCCC1(c2cccc3ccccc23)OCc2cc(C#N)ccc21 (single isomer, unassigned; enantiomer 1) [listing 1 of 2 here] | – | – | – | – | – | 19
16 | CN(C)CCCC1(c2cc(Cl)cc(Cl)c2)OCc2ccccc21 (single isomer, unassigned; enantiomer 1) [listing 2 of 2 here] | – | – | – | – | – | 25
17 | CCCCN(C)CCC[C@]1(c2ccc(F)cc2)OCc2cc(C#N)ccc21 | – | – | 13 | 1.1 µM | 14.5 µM | –
18 | CN(C)CCCC1(c2cc(Cl)cc(Cl)c2)OCc2ccccc21 (single isomer, unassigned; enantiomer 2) [listing 2 of 2 here] | – | – | – | – | – | 67

Continued, in another order:

Row | IC50 [1] | EC50 [3] | Selectivity ratio (Homo sapiens [4]) | IC50 [5] | EC50 [6] | Structure (SMILES) | Selectivity ratio (Homo sapiens [2])
19 | 0.008 µM | 95 µM | – | – | – | CN(C)CCCC1(c2ccc(F)cc2)OCc2cc3ccccc3cc21 (stereo not drawn) | 12000
20 | 0.35 µM | 8.8 µM | – | – | – | CN(C)CCCC1(c2cc(Cl)cc(Cl)c2)OCc2ccccc21 (single isomer, unassigned; enantiomer 1) [listing 1 of 2 here] | –
21 | 0.25 µM | 19 µM | – | – | – | CN(C)CCCC1(c2cccc3ccccc23)OCc2cc(C#N)ccc21 (stereo in doubt; 2) [listing 2 of 2 here] | –
22 | 0.15 µM | 55 µM | – | – | – | CN(C)CCCC1(c2ccc3ccccc3c2)OCc2cc(C#N)ccc21 (single isomer, unassigned; enantiomer 2) [listing 2 of 2 here] | –
23 | 0.28 µM | 19 µM | – | – | – | CN(C)CCCC1(c2cccc3ccccc23)OCc2cc(C#N)ccc21 (single isomer, unassigned; enantiomer 2) [listing 2 of 2 here] | –
24 | 0.3 µM | 20 µM | – | – | – | CN(C)CCCC1(c2cc(Cl)cc(Cl)c2)OCc2ccccc21 (single isomer, unassigned; enantiomer 2) [listing 1 of 2 here] | –
25 | 0.013 µM | 29.6 µM | – | – | – | CN(C)CCCC1(c2ccc(Cl)c(Cl)c2)OCc2ccccc21 (stereo not drawn) | 2300
26 | 0.74 µM | 14 µM | – | – | – | CN(C)CCCC1(c2cccc3ccccc23)OCc2cc(C#N)ccc21 (single isomer, unassigned; enantiomer 1) [listing 2 of 2 here] | –
27 | 0.01 µM | 41 µM | – | – | – | CN(C)CCCC1(c2ccc3ccccc3c2)OCc2cc(C#N)ccc21 (single isomer, unassigned) [listing 2 of 2 here] | –
28 | 0.012 µM | 38 µM | – | – | – | CN(C)CCCC1(c2ccc(F)cc2)OCc2ccc3ccccc3c21 (stereo not drawn) | 3200
29 | 0.034 µM | 68 µM | – | – | – | CN(C)CCCC1(c2ccc3ccccc3c2)OCc2cc(C#N)ccc21 (stereo in doubt; 1) [listing 2 of 2 here] | –
30 | 0.34 µM | 15 µM | – | – | – | CN(C)CCCC1(c2cc(Cl)cc(Cl)c2)OCc2ccccc21 (stereo in doubt; 4) [listing 2 of 2 here] | –
